Assay results reported in ChEMBL document CHEMBL1201862, “PubChem BioAssay data set” (2004).
Activity calls are given as the source filed them.

Tests used:
[1] = HEp-2 cell cytotoxicity, dose response, cytotoxicity control for RSV inhibitor project, HTS (AID 2410); type: functional; settings: human respiratory syncytial virus
[2] = Luminescence Cell-Based Dose Retest to Confirm Inhibitors of Cancer Stem Cells. [Related pubchem assays (depositor defined):AID2717, AID2721]; type: functional; settings: Homo sapiens
[3] = ADAM10 inhibitors, peptide cleavage, dose response, biochemical, QFRET (AID 743254);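 further: ADAM10 enzyme with the DM2 quenched FRET peptide as substrate; EDANS fluorescence gain as the protease cuts the substrate; inhibitor potency against ADAM10 proteolytic activity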
[4] = target: Disintegrin and metalloproteinase domain-containing protein 17 (Homo sapiens, UniProt P78536); test: ADAM17 protease inhibitors, dose response, counter-screen for ADAM10 exosite inhibitor project, biochemical, quenched FRET substrate (AID 743253)
[5] = inhibitors of intracellular T. cruzi replication, confirmation, NIH3T3 host cells, beta-gal luminescence (AID 2044); type: functional, cell-based;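 further: intracellular parasites grown in NIH/3T3 mouse fibroblasts as host cells; luminescent beta-galactosidase reporter signal from transgenic T. cruzi replicating inside host cells; inhibitors lower the luminescence signal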
[6] = cytotoxicity toward NIH3T3 fibroblasts, dose response, counter-screen, cell-based, ATP luminescence, mouse fibroblasts (AID 2010); type: functional;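 further: cells exposed to compound for about 90 hours before reading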
[7] = target: Estrogen receptor beta (Homo sapiens, UniProt Q92731); test: ERβ–SRC-3 coactivator interaction inhibitors, confirmation, orthogonal assay, biochemical, ELISA, streptavidin-HRP readout (AID 1060)
[8] = target: T1, Cytochrome P450 1A2 (Homo sapiens, UniProt P05177);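 further: PubChem cytochrome P450 panel assay, CYP1A2 panel member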
T1 sequence (P05177 whole entry): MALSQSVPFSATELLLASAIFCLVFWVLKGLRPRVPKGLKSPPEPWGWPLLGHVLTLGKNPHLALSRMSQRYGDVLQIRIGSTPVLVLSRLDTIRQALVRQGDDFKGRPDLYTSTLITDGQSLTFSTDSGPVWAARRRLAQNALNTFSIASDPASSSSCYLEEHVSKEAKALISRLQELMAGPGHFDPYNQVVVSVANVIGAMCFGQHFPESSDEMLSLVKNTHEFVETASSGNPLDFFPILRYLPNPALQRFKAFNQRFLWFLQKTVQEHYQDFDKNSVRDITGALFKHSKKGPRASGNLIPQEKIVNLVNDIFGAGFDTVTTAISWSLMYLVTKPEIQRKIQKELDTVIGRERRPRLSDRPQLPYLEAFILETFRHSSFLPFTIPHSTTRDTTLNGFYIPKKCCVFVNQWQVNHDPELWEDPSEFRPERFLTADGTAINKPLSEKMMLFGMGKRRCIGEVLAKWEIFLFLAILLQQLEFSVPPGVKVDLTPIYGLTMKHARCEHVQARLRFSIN

[9] = target: Cytochrome P450 2C9 (Homo sapiens, UniProt P11712)
[10] = target: E3 ubiquitin-protein ligase Mdm2 (Homo sapiens, UniProt Q00987); test: enhancers of MDM2-luciferase reporter signal, concentration-effect titration, project on inhibitors of MDM2 ubiquitin ligase, cellular assay, luminescent readout, 384-well plate format (AID 1394); type: functional;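 further: MDM2 E3 inhibitors raise luminescence so EC50 is for signal enhancement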
[11] = target: Peroxisome proliferator-activated receptor gamma/Nuclear receptor coactivator 2 (Homo sapiens, UniProt P37231); type: functional;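 further: agonist potency for raising coactivator recruitment to the receptor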
[12] = target: Peroxisome proliferator-activated receptor gamma/Nuclear receptor coactivator 1 (Homo sapiens, UniProt P37231); type: functional;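 further: agonist potency as compounds enhance coactivator SRC-1 recruitment to PPARgamma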
[13] = target: Peroxisome proliferator-activated receptor gamma/Nuclear receptor coactivator 3 (Homo sapiens, UniProt P37231); type: functional;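 further: agonist potency for raising coactivator recruitment to the receptor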
[14] = target: T2, Rac GTPase-activating protein 1 (Homo sapiens, UniProt Q9H0H5); test: MgcRacGAP GTPase-activating activity inhibitors, confirmation, biochemical, ADP Hunter fluorescence, primary and confirmatory (AID 624330); type: functional
T2 sequence (Q9H0H5 whole entry): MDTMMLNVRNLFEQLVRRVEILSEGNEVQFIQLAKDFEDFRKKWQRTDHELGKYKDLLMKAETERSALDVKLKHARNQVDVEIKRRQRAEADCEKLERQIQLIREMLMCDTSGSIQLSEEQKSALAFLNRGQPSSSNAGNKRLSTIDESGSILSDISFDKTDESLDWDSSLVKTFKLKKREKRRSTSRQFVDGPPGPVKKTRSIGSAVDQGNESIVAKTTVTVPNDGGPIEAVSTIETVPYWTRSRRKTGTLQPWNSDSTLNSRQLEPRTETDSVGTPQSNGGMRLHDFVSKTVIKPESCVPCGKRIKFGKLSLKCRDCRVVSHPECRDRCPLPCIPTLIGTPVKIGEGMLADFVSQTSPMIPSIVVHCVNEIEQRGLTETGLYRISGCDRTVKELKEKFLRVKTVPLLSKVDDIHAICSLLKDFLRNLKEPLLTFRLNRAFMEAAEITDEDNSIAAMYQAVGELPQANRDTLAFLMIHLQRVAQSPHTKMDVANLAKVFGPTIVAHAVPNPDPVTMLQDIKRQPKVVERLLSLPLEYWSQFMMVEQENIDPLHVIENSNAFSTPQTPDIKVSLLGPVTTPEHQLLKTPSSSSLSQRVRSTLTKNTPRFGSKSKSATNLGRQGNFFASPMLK

[15] = target: T3, Epstein-Barr nuclear antigen 1 (Epstein-Barr virus (strain B95-8) (HHV-4) (Human herpesvirus 4), UniProt P03211); test: EBNA-1 inhibitors, dose response, biochemical, fluorescence polarization, 1536-well (AID 2381); design: species or system human gammaherpesvirus 4;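 further: fluorescence polarization of a Cy5 DNA probe bound by EBNA-1 protein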
T3 sequence (P03211 whole entry): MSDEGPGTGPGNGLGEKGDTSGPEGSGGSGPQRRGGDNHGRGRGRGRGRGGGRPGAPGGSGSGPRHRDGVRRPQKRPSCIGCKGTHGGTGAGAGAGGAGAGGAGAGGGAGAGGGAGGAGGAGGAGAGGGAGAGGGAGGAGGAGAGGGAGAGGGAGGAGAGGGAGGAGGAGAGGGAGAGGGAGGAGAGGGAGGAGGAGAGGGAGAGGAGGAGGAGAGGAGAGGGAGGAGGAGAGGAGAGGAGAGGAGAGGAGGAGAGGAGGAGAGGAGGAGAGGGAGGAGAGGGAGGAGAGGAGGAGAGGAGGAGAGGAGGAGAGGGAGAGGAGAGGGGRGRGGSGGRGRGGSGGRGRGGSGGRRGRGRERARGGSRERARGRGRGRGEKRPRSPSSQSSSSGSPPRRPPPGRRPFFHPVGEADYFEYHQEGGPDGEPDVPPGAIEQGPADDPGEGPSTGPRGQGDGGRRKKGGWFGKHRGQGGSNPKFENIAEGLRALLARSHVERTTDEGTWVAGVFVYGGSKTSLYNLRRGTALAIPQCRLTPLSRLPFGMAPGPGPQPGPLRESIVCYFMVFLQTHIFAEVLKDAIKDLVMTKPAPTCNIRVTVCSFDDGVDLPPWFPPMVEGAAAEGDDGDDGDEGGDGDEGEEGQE

[16] = target: T4, Lytic switch protein BZLF1 (Epstein-Barr virus (strain B95-8) (HHV-4) (Human herpesvirus 4), UniProt P03206); test: EBV ZTA inhibitors, dose response, counter-screen for EBNA-1 inhibitor project, biochemical, fluorescence polarization, Epstein-Barr virus, 1536-well (AID 2377); design: species or system human gammaherpesvirus 4;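 further: fluorescence polarization of Cy5-labelled ZRE DNA probe bound by purified Zta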
T4 sequence (P03206 whole entry): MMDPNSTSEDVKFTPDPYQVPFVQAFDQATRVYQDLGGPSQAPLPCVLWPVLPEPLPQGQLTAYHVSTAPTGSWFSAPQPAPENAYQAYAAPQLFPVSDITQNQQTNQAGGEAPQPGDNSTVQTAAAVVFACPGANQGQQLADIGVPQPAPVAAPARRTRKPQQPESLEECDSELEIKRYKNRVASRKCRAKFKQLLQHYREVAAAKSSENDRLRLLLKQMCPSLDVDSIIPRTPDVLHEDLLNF

[17] = Luminescence-based cell-based high throughput dose response assay to identify activators of the DAF-12 from the parasite S. stercoralis (ssDAF-12).; type: functional
[18] = target: T5, Oxysterols receptor LXR-beta (Homo sapiens, UniProt P55055); test: LXR agonists, Gal4 luciferase reporter, dose response, counter-screen for ssDAF-12 agonist project, cell-based, luminescence, HEK293, S. stercoralis campaign (AID 720737); type: functional; settings: read-out: IC50 (the source's name)
T5 sequence (P55055 whole entry): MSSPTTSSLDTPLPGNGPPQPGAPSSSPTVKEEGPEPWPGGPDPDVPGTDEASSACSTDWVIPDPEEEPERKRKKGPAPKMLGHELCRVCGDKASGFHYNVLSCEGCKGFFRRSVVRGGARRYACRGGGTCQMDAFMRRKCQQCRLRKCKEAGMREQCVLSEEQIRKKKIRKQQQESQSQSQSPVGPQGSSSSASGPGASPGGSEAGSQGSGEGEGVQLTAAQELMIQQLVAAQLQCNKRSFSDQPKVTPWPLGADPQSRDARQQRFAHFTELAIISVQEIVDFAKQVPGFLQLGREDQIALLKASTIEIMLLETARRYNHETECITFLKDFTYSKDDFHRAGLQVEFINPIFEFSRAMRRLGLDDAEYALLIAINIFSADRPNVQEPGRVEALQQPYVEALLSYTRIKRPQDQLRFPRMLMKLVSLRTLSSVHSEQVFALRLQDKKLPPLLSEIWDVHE

[19] = cytotoxicity in HPDE-C7 cells, cell-based, fluorescence, HTS (AID 430); type: functional; settings: Homo sapiens
[20] = cytotoxicity in KRAS-transformed pancreatic duct cells, primary screen, cell-based, fluorescence, HTS (AID 431); type: functional; settings: Homo sapiens;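 further: cell line used: HPDE-C7K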

Sequence of Disintegrin and metalloproteinase domain-containing protein 17 (P78536 whole entry, the tested form may be a part): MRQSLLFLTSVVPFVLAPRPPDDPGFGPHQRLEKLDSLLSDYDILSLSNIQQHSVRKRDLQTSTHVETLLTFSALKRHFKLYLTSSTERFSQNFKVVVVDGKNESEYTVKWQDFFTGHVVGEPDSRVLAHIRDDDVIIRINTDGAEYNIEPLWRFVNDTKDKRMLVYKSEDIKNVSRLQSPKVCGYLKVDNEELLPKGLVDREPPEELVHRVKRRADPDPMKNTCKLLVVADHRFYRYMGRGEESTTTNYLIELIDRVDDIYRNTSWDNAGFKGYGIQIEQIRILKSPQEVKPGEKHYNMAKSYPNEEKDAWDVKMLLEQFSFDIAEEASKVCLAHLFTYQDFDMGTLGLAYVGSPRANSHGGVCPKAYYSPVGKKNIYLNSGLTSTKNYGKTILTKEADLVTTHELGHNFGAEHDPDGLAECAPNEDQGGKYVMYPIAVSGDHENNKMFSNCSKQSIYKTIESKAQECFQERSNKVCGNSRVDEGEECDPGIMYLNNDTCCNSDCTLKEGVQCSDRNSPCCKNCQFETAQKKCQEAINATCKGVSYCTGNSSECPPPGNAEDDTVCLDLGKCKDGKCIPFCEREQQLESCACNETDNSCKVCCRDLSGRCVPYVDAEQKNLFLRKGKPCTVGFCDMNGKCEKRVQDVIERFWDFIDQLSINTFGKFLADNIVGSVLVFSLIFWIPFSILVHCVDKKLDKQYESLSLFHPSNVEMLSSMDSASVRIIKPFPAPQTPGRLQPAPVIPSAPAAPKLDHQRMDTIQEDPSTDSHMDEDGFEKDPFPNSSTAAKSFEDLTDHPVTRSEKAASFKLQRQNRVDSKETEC
Sequence of E3 ubiquitin-protein ligase Mdm2 (Q00987 whole entry): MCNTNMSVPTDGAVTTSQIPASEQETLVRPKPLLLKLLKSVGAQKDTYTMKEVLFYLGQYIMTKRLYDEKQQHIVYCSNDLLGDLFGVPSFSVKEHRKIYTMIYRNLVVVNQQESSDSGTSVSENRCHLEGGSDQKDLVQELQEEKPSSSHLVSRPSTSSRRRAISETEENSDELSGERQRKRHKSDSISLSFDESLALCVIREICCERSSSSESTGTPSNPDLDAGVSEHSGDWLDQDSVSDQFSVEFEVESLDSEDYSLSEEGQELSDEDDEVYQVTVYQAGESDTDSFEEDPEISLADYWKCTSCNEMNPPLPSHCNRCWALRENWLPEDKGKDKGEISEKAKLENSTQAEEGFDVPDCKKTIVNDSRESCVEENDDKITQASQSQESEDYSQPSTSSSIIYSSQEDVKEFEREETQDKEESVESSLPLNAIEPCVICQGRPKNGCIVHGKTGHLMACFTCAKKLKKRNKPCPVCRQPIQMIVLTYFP
Sequence of Estrogen receptor beta (Q92731 whole entry): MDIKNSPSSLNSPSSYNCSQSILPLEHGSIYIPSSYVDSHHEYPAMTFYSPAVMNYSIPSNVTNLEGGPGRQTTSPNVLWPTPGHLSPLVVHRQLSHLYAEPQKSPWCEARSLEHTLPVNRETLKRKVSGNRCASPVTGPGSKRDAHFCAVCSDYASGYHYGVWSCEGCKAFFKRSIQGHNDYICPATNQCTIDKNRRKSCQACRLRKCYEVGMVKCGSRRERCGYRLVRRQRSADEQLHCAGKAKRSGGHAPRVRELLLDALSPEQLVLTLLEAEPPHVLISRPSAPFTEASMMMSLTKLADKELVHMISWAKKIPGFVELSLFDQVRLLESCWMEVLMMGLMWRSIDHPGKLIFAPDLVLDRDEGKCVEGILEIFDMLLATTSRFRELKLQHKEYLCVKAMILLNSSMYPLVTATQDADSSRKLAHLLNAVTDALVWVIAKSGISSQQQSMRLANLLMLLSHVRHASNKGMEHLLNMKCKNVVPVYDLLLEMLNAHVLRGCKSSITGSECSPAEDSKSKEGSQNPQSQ
Sequence of Cytochrome P450 2C9 (P11712 whole entry): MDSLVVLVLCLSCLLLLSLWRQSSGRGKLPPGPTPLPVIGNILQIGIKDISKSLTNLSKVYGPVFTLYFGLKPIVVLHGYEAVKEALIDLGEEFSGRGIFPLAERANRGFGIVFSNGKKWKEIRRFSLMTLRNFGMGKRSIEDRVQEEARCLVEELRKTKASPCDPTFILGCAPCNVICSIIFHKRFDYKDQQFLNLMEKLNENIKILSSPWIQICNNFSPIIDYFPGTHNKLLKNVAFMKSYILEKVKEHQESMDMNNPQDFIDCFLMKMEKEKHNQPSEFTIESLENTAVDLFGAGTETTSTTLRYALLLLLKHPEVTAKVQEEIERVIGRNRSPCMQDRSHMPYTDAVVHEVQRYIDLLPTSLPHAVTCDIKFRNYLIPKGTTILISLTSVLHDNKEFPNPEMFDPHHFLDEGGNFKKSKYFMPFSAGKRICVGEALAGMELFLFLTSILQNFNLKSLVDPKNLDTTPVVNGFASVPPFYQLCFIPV
Sequence of Peroxisome proliferator-activated receptor gamma/Nuclear receptor coactivator 2 (P37231 whole entry): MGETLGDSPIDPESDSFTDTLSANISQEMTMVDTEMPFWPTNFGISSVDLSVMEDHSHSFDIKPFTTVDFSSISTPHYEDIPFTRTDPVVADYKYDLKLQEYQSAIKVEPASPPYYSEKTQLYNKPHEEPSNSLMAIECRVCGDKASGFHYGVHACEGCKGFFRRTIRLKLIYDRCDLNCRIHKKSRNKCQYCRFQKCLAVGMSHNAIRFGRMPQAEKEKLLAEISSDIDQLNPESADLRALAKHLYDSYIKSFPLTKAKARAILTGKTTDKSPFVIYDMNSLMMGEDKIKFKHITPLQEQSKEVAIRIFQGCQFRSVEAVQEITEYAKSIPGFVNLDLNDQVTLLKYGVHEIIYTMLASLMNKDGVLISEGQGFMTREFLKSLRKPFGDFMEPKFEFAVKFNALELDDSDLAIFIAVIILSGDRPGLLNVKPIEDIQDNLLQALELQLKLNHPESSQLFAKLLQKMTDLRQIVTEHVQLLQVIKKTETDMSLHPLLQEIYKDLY
Sequence of Peroxisome proliferator-activated receptor gamma/Nuclear receptor coactivator 2 (Q15596 whole entry, further chain): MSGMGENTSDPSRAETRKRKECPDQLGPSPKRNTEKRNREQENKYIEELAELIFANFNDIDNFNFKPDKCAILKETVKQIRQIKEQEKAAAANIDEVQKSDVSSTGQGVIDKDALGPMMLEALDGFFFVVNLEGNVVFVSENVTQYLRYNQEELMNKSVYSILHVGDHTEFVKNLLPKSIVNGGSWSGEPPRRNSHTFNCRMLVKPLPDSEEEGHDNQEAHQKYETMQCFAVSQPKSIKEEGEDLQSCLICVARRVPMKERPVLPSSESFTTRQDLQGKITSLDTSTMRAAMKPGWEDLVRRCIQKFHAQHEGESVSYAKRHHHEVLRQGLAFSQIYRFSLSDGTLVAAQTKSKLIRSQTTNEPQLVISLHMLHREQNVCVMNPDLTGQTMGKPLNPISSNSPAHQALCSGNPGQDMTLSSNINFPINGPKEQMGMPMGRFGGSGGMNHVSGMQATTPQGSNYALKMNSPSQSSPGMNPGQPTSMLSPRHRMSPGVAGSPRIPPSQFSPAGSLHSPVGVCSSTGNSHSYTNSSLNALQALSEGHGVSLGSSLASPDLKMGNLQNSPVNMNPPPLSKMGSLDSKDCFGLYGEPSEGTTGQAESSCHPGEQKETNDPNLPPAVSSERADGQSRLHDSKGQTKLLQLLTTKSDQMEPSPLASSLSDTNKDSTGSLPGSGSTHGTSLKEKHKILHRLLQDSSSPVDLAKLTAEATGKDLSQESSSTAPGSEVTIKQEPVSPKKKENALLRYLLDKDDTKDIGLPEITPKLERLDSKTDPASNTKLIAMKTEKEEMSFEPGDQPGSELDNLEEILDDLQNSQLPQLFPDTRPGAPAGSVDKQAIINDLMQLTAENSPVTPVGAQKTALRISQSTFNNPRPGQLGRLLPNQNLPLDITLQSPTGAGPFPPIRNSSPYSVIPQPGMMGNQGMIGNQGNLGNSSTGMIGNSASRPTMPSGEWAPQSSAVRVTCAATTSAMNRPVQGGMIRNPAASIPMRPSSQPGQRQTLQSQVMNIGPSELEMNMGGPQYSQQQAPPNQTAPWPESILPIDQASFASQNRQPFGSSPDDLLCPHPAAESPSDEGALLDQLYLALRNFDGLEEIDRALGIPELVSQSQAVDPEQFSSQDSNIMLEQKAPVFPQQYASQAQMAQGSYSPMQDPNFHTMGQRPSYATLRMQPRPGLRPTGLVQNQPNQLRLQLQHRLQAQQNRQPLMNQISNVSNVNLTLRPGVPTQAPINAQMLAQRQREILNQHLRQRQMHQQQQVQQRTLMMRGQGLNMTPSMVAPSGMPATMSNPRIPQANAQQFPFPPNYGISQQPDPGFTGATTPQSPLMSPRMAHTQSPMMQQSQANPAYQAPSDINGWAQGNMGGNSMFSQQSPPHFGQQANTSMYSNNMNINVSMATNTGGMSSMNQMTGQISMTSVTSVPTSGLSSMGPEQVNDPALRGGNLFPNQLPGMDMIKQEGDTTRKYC

SMILES: CC(/C=C1\SC(=O)N(CC(=O)Nc2cccc(O)c2)C1=O)=C\c1ccccc1
- CC50 [1]: 13.9 µM (active)
- AC50 [2]: 4.04 µM (active)
- IC50 [3]: 10.2 µM (inactive)
- IC50 [4]: > 69.5 µM (inactive)

SMILES: O=C(CN(Cc1cccs1)S(=O)(=O)c1ccc(S(=O)(=O)NC2CCCCC2)cc1)Nc1ccccc1
- EC50 [5]: 2.08 µM (active)
- EC50 [6]: > 60 µM (not active)
- IC50 [3]: 7.69 µM (active)
- IC50 [4]: > 69.5 µM (inactive)

SMILES: CCN1CCN(Cc2ccc(NC(=O)Nc3cccs3)cc2)CC1
- IC50 [7]: 0.41 µM (not active)
- AC50 [8]: 12.6 µM (inconclusive)
- AC50 [9]: 7.94 µM (inconclusive)

SMILES: COc1ccc(C2C(C(=O)N3CCN(C)CC3)c3cc(OC)c(OC)cc3C(=O)N2C)cc1 (stereo not given)
- EC50 [10]: 2.94 µM (not active)

SMILES: COC(=O)c1[nH]c2cc(OC)c(OC)cc2c1NC(=O)Oc1ccccc1
- EC50 [11]: 90.7 µM (not active)
- EC50 [12]: 97.7 µM (not active)
- EC50 [13]: > 79.4 µM (not active)
- IC50 [14]: 28.8 µM (active)

SMILES: CCOC(=O)c1sc(NC(=O)COc2ccc3c(c2)OCO3)nc1C
- IC50 [15]: 7.18 µM (active)
- IC50 [16]: > 111 µM (not active)

SMILES: CN(C)c1cc(C(F)(F)F)nc(-c2ccccn2)n1
- EC50 [10]: 4.16 µM (not active)

SMILES: CCOc1ccc(OCC)c(NC(=O)C(NS(=O)(=O)c2ccc3c(c2)oc(=O)n3C)C(C)C)c1 (stereo not given)
- IC50 [15]: > 5.47 µM (active)
- IC50 [16]: > 111 µM (not active)

SMILES: Oc1ccccc1-c1cc(-c2ccccc2Cl)[nH]n1
- IC50 [17]: > 67.5 µM (inactive)
- EC50 [18]: > 67.5 µM (inactive)

SMILES: O=C(c1ccc(F)cc1)N1CCC(N2CCCCCC2)CC1
- EC50 [19]: > 20 µM (not active)
- EC50 [20]: > 20 µM (not active)
